The target of one assay is NMDA receptors. Briefly: (3H)CPP binding displacement in rat brain homogenate. The following applies: for IC50: (3H)CPP 8 nM, rat brain homogenate, 23° C. As to the method: It was determined that the compounds of this invention are competitive NMDA antagonists by determining their ability to inhibit binding of 3-(2-carboxypiperazinyl-4-yl)propyl-1-phosphonic acid (CPP), a known competitive NMDA antagonist, at NMDA receptors in rat brain homogenate. In a manner similar to the procedure of Murphy et al., J. Pharmacol. Exp. Therap. 240 (3) 778 (1987), rat brain homogenates from which endogenous glutamate had been removed were incubated with (3H)CPP (8 nM), the compound being tested and then buffer each for 15 minutes at 23° C. to obtain a final volume of 2 milliliters. The amount of radio ligand displaced by the test compound is expressed as a percentile of the radio ligand displaced by NMDA. The inhibitory concentration of test compound that will displace 50% of the labeled CPP is determined from dose-responseevaluations.
(§1) Where the displacement of CPP binding is expressed as a percentage, it is at the μM concentration given at the concentration in the parenthesis. Similarly, where percent inhibition of lethality at dose in parenthesis.

Assay [1] has as its system male Swiss-albino mice (CD-1 strain), NMDA-induced lethality. The assay can be described thus: NMDA induced lethality in mice (survival). It is filed as in vivo, mouse. As to conditions: for ED50: Mus musculus, 0.5 h, mice pretreated 30 min before NMDA 195 mg/kg i.p., observed 30 min; for percent inhibition of lethality: NMDA 195 mg/kg i.p. As to the method: (§2) The mice were then observed for 30 minutes, noting the latency of onset of generalized myoclonus (uncontrollable hind leg scratching of limbs and/or torso muscle jerking with loss of righting reflex) and death. From the latter, the ED50 for survival is determined. In this standard experimental test procedure, the specific compounds tested and their activity, which representatively establish the activity for all the compounds herein, is presented in the following Table.
as §1

In assay [2] the test system is Parkinsonian-like symptoms induced by MPTP in rats. As to conditions: Turski et al., Nature 1991; cited from earlier work.
Assay [3] deals with NMDA-induced convulsions in mice. As to conditions: Lehmann et al. 1987; cited from earlier work.
The subject of assay [4] is ischemic brain damage in gerbils. The following applies: Boast et al., Brain Research 1988; cited from earlier work.
The test system of assay [5] is male Swiss-albino mice (CD-1 strain), generalized myoclonus. The assay can be described thus: NMDA-induced generalized myoclonus in mice. Format: in vivo. The following applies: Mus musculus, ip, read-out: ED90 dose for generalized myoclonus. As to the method: as §2
Setting [6] is: at dose in parenthesis 5 (in mg/kg).

At NMDA receptors, `CCOC(=O)CNc1c(N)c(=O)c1=O` [1(a), N-(2-amino-3,4-dioxo-1-cyclobutenyl)glycine ethyl ester] showed a half-inhibitory concentration (IC50) of 190000 nM. Moreover, in assay [1], the ED50 is > 100 mg/kg.
Take `Nc1c(NCC(=O)O)c(=O)c1=O` [1(b), N-(2-amino-3,4-dioxo-1-cyclobutenyl)glycine]: the median effective dose (ED50) in assay [1] is > 100 mg/kg.
`Nc1c(NCCCC(=O)O)c(=O)c1=O` [1(c), 4-[(2-amino-3,4-dioxo-1-cyclobutenyl)amino]butanoic acid] displayed an IC50 on NMDA receptors of 10200 nM. Further, the ED50 in assay [1] was > 100 mg/kg.
The corresponding values for `CNc1c(NCCC(=O)O)c(=O)c1=O` [2(a), N-[2-(methylamino)-3,4-dioxo-1-cyclobutenyl]beta-alanine] are 19600 nM and > 100 mg/kg.
Consider `O=C(O)CCNc1c(NCc2ccccc2)c(=O)c1=O` [2(b), 3-[[3,4-dioxo-2[(phenylmethyl)amino]-1-cyclobutenyl]amino]propanoic acid], for which, at NMDA receptors, the IC50 was > 100000 nM. Further, the ED50 in assay [1] is > 100 mg/kg.
As to `C=C(C)CN(CC(=O)O)c1c(N)c(=O)c1=O` [3(a), N-(2-amino-3,4-dioxo-1-cyclobutenyl)-N-(2-methyl-2-propenyl)glycine], the IC50 at NMDA receptors turned out to be 30000 nM. In addition, the ED50 in assay [1] is > 100 mg/kg.
For `Nc1c(N(CC(=O)O)Cc2ccccc2)c(=O)c1=O` [3(b), N-(2-amino-3,4-dioxo-1-cyclobutenyl)-N-(phenylmethyl)glycine], the “displacement of CPP binding” value with NMDA receptors (at 100 μM) was found to be 50%. Further, in assay [1], the ED50 is > 100 mg/kg.
As to `Nc1c(NCP(=O)(O)O)c(=O)c1=O` [4(a), [[(2-amino-3,4-dioxo-1-cyclobutenyl)amino]methyl]phosphonic acid], the IC50 on NMDA receptors is > 10000 nM.
For the compound `Nc1c(NCCCP(=O)(O)O)c(=O)c1=O` [4(b), [3-[(2-amino-3,4-dioxo-1-cyclobuten-1-yl)amino]propyl]phosphonic acid], the IC50 on NMDA receptors was 2590 nM. Moreover, the ED50 in assay [1] is > 100 mg/kg.
`Nc1c(NCCCCP(=O)(O)O)c(=O)c1=O` [4(c), [4-[(2-amino-3,4-dioxo-1-cyclobuten-1-yl)amino]butyl]phosphonic acid]: the “displacement of CPP binding” value with NMDA receptors (at 10 μM) was determined as 68%. Moreover, in assay [1], the ED50 was > 30 mg/kg.
On to `CN(CP(=O)(O)O)c1c(N)c(=O)c1=O` [6(a), [[(2-amino-3,4-dioxo-1-cyclobuten-1-yl)methylamino]methyl]phosphonic acid], for which the IC50 on NMDA receptors is > 10000 nM.
The compound `CC1(C)CNc2c(c(=O)c2=O)N(CCP(=O)(O)O)C1` [9(a), [2-(4,4-dimethyl-8,9-dioxo-2,6-diazabicyclo[5.2.0]non-1(7)-en-2-yl)ethyl]phosphonic acid] registered an IC50 on NMDA receptors of 280 nM. The “percent inhibition of lethality” value in assay [1] (setting [6]) amounted to 50%.
Take `O=c1c2c(c1=O)N(CCCP(=O)(O)O)CCCN2` [9(b), [3-(8,9-dioxo-2,6-diazabicyclo[5.2.0]non-1(7)-en-2-yl)propyl]phosphonic acid]: the IC50 on NMDA receptors was > 1000 nM. Moreover, the ED50 in assay [1] is > 10 mg/kg.
The corresponding values for `O=c1c2c(c1=O)N(C/C=C/P(=O)(O)O)CCCN2` [9(c), [(E)-3-(8,9-dioxo-2,6-diazabicyclo[5.2.0]non-1(7)-en-2-yl)-1-propenyl]phosphonic acid] are > 10000 nM and > 5 mg/kg.
On to `O=C(O)CCN1CCCNc2c1c(=O)c2=O` [10(a), 3-(8,9-dioxo-2,6-diazabicyclo[5.2.0]non-1(7)-en-2-yl)propanoic acid], for which the IC50 on NMDA receptors worked out at 340 nM. Moreover, in assay [1], the 50% effective dose (ED50) was > 20 mg/kg.
Consider `O=c1c2c(c1=O)N(CCc1nnn[nH]1)CCCN2` [11(a), 2-[2-(1H-tetrazol-5-yl)ethyl]-2,6-diazabicyclo[5.2.0]non-1(7)-ene-8,9-dione], for which the “displacement of CPP binding” value with NMDA receptors (at 10 μM) was determined as 40%. For the same compound, in assay [1], the ED50 is > 5 mg/kg.
Turning to `O=C(O)C1CN(CCCP(=O)(O)O)CCN1` (stereo not shown) [CPP, 4-(3-phosphonopropyl)-2-piperazinecarboxylic acid], the “prevention of Parkinsonian-like symptoms induced by MPTP” value in assay [2] is “shown to prevent the Parkinsonian-like symptoms induced by MPTP”. In addition, the “prevention of NMDA-induced convulsions” value in assay [3] is “NMDA-induced convulsions have been prevented by CPP in mice”. For the same compound, in assay [4], the “prevention of ischemic brain damage” value is “shown to prevent ischemic brain damage in gerbils”.
Consider `Nc1c(NCCC(=O)O)c(=O)c1=O` [Example 1, N-(2-Amino-3,4-dioxo-1-cyclobuten-1-yl)beta-alanine], for which the ED50 in assay [1] is > 100 mg/kg.
`Nc1c(NCCn2oc(=O)[nH]c2=O)c(=O)c1=O` [Example 2, 2-[2-[(2-Amino-3,4-dioxo-1-cyclobuten-1-yl)amino]ethyl]-1,2,4-oxadiazolidine-3,5-dione]: the IC50 at NMDA receptors is 5200 nM. Moreover, in assay [1], the ED50 was > 100 mg/kg.
The corresponding values for `C=CCN(CC(=O)O)c1c(N)c(=O)c1=O` [Example 3, N-(2-Amino-3,4-dioxo-1-cyclobuten-1-yl)-N-(2-propenyl)glycine] are 10500 nM and > 100 mg/kg.
On to `Nc1c(NCCP(=O)(O)O)c(=O)c1=O` [Example 4, [2-[(2-Amino-3,4-dioxo-1-cyclobuten-1-yl)amino]ethyl]phosphonic acid], for which the concentration for half-maximal inhibition (IC50) on NMDA receptors was determined as 471 nM.
`Nc1c(NC/C=C/CP(=O)(O)O)c(=O)c1=O` [Example 5, [(E)-4-[(2-Amino-3,4-dioxo-1-cyclobuten-1-yl)amino]-2-butenyl]phosphonic acid]: in the assay with NMDA receptors (at 10 μM), the “displacement of CPP binding” value is on record as 52%. In addition, the ED50 in assay [1] is > 30 mg/kg.
On NMDA receptors, `CN(CCP(=O)(O)O)c1c(N)c(=O)c1=O` [Example 6, [2-[(2-Amino-3,4-dioxo-1-cyclobuten-1-yl)methylamino]ethyl]phosphonic acid] registered a 50% inhibitory concentration (IC50) of 1000 nM. The “percent inhibition of lethality” value in assay [1] (at dose in parenthesis 50 (in mg/kg)) was found to be 50%.
`O=c1c2c(c1=O)N(CCP(=O)(O)O)CCN2` [Example 7, [2-(7,8-Dioxo-2,5-diazabicyclo[4.2.0]oct-1(6)-en-2-yl)ethyl]phosphonic acid] showed an IC50 on NMDA receptors of 92 nM. Further, the ED50 in assay [1] came to 6.2 mg/kg.
Turning to `O=c1c2c(c1=O)N(CCP(=O)(O)O)CCCN2` [Example 8, [2-(8,9-Dioxo-2,6-diazabicyclo[5.2.0]non-1(7)-en-2-yl)ethyl]phosphonic acid], at NMDA receptors, the IC50 worked out at 30 nM. In assay [1], the ED50 was determined as 2.1 mg/kg.
The corresponding values for `O=c1c2c(c1=O)N(CCP(=O)(O)O)CC(O)CN2` (stereo not shown) [Example 9, [2-(4-hydroxy-8,9-dioxo-2,6-diazabicyclo[5.2.0]non-1(7)-en-2-yl)ethyl]phosphonic acid] are 19 nM and 1.8 mg/kg.
In the case of `O=C(O)CN1CCCNc2c1c(=O)c2=O` [Example 10, 8,9-Dioxo-2,6-diazabicyclo[5.2.0]non-1(7)-ene-2-acetic acid], the IC50 at NMDA receptors came to 550 nM. In addition, in assay [1], the 50% effective dose (ED50) was > 20 mg/kg.
Taken in the same sequence, the figures for `O=c1c2c(c1=O)N(Cc1nnn[nH]1)CCCN2` [Example 11, 2-[(1H-Tetrazol-5-yl)methyl]-2,6-diazabicyclo[5.2.0]non-1(7)-ene-8,9-dione] were 38 nM and > 10 mg/kg.
On NMDA receptors, `O=c1c2c(c1=O)N(CCP(=O)(O)O)CCCCN2` [Example 12, [2-(9,10-Dioxo-2,7-diazabicyclo[6.2.0]dec-1(8)-en-2-yl)ethyl]phosphonic acid] had an IC50 of 41 nM. Further, in assay [1] (setting [6]), the “percent inhibition of lethality” value stood at 80%.
As to `CN[C@H](CC(=O)O)C(=O)O` [NMDA, N-methyl-D-aspartic acid], in assay [5], the ED90 is 195 mg/kg.
